Data from patent US5672715A, “Herbicidal substituted 3-aryl-pyrazoles” (Monsanto Company, priority 1995, dated 1997).

How the values were obtained:
Type in all cases: in vivo
[1] = test system: Rape; test: post-emergence herbicide test; conditions: post-emergence, 0.25 lb/A; read-out: % plant inhibition
In short: (§1)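 Greenhouse plants grown from seeds in topsoil were treated two to three weeks after sowing with a spray solution or suspension of test chemical with about 0.4% by volume emulsifier, applied at 1870 L/Ha and 170.3 kPa. Percent inhibition per species was the endpoint.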

[2] = test system: Seedling Johnsongrass; test: post-emergence herbicide test; conditions: Sorghum halepense, post-emergence, 0.25 lb/A; read-out: % plant inhibition
In short: as §1

[3] = test system: Barnyardgrass; test: post-emergence herbicide test; conditions: Echinochloa crus-galli, post-emergence, 0.25 lb/A; read-out: % plant inhibition
In short: as §1

[4] = test system: Green Foxtail; test: post-emergence herbicide test; conditions: Setaria viridis, post-emergence, 0.25 lb/A; read-out: % plant inhibition
In short: as §1

[5] = test system: Soybean; test: post-emergence herbicide test; conditions: Glycine max, post-emergence, 0.25 lb/A; read-out: % plant inhibition
In short: as §1

[6] = test system: Giant Foxtail; test: post-emergence herbicide test; conditions: Setaria faberi, post-emergence, 0.25 lb/A; read-out: % plant inhibition
In short: as §1

[7] = test system: Wheat; test: post-emergence herbicide test; conditions: Triticum aestivum, post-emergence, 0.25 lb/A; read-out: % plant inhibition
In short: as §1

[8] = test system: Morning Glory; test: post-emergence herbicide test; conditions: Ipomoea, post-emergence, 0.25 lb/A; read-out: % plant inhibition
In short: as §1

[9] = test system: Common Chickweed; test: post-emergence herbicide test; conditions: post-emergence, 0.25 lb/A; read-out: % plant inhibition
In short: as §1

[10] = test system: Bedstraw Catchweed; test: post-emergence herbicide test; conditions: Galium aparine, post-emergence, 0.25 lb/A; read-out: % plant inhibition
In short: as §1

[11] = test system: Wild Oats; test: post-emergence herbicide test; conditions: Avena fatua, post-emergence, 0.25 lb/A; read-out: % plant inhibition
In short: as §1

[12] = test system: Velvetleaf; test: post-emergence herbicide test; conditions: Abutilon theophrasti, post-emergence, 0.25 lb/A; read-out: % plant inhibition
In short: as §1

[13] = test system: Blackgrass; test: post-emergence herbicide test; conditions: Alopecurus myosuroides, post-emergence, 0.25 lb/A; read-out: % plant inhibition
In short: as §1

[14] = test system: Birdseye Speedwell; test: post-emergence herbicide test; conditions: post-emergence, 0.25 lb/A; read-out: % plant inhibition
In short: as §1

[15] = test system: Cocklebur; test: post-emergence herbicide test; conditions: Xanthium strumarium, post-emergence, 0.25 lb/A; read-out: % plant inhibition
In short: as §1

[16] = test system: Corn; test: post-emergence herbicide test; conditions: Zea mays, post-emergence, 0.25 lb/A; read-out: % plant inhibition
In short: as §1

[17] = test system: Downy Brome; test: post-emergence herbicide test; conditions: Bromus tectorum, post-emergence, 0.25 lb/A; read-out: % plant inhibition
In short: as §1

[18] = test system: Rape; test: pre-emergence herbicide test; conditions: pre-emergence, 0.25 lb/A; read-out: % plant inhibition
In short: (§2)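 Known amounts of active ingredient went into the cover soil over seeds sown in pans, either before or after the layer was spread. An initial 1/4 inch overhead irrigation was given in some cases; otherwise pans were subirrigated. Rating was % inhibition at ~14 days.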

[19] = test system: Seedling Johnsongrass; test: pre-emergence herbicide test; conditions: Sorghum halepense, pre-emergence, 0.25 lb/A; read-out: % plant inhibition
In short: as §2

[20] = test system: Barnyardgrass; test: pre-emergence herbicide test; conditions: Echinochloa crus-galli, pre-emergence, 0.25 lb/A; read-out: % plant inhibition
In short: as §2

[21] = test system: Green Foxtail; test: pre-emergence herbicide test; conditions: Setaria viridis, pre-emergence; 0.25 lb/A; read-out: % plant inhibition
In short: as §2

[22] = test system: Soybean; test: pre-emergence herbicide test; conditions: Glycine max, pre-emergence, 0.25 lb/A; read-out: % plant inhibition
In short: as §2

[23] = test system: Giant Foxtail; test: pre-emergence herbicide test; conditions: Setaria faberi, pre-emergence, 0.25 lb/A; read-out: % plant inhibition
In short: as §2

[24] = test system: Wheat; test: pre-emergence herbicide test; conditions: Triticum aestivum, pre-emergence, 0.25 lb/A; read-out: % plant inhibition
In short: as §2

[25] = test system: Morning Glory; test: pre-emergence herbicide test; conditions: Ipomoea, pre-emergence, 0.25 lb/A; read-out: % plant inhibition
In short: as §2

[26] = test system: Common Chickweed; test: pre-emergence herbicide test; conditions: pre-emergence, 0.25 lb/A; read-out: % plant inhibition
In short: as §2

[27] = test system: Bedstraw Catchweed; test: pre-emergence herbicide test; conditions: Galium aparine, pre-emergence, 0.25 lb/A; read-out: % plant inhibition
In short: as §2

[28] = test system: Wild Oats; test: pre-emergence herbicide test; conditions: Avena fatua, pre-emergence, 0.25 lb/A; read-out: % plant inhibition
In short: as §2

[29] = test system: Velvetleaf; test: pre-emergence herbicide test; conditions: Abutilon theophrasti, pre-emergence, 0.25 lb/A; read-out: % plant inhibition
In short: as §2

[30] = test system: Blackgrass; test: pre-emergence herbicide test; conditions: Alopecurus myosuroides, pre-emergence, 0.25 lb/A; read-out: % plant inhibition
In short: as §2

[31] = test system: Birdseye Speedwell; test: pre-emergence herbicide test; conditions: pre-emergence, 0.25 lb/A; read-out: % plant inhibition
In short: as §2

[32] = test system: Cocklebur; test: pre-emergence herbicide test; conditions: Xanthium strumarium, pre-emergence, 0.25 lb/A; read-out: % plant inhibition
In short: as §2

[33] = test system: Corn; test: pre-emergence herbicide test; conditions: Zea mays, pre-emergence, 0.25 lb/A; read-out: % plant inhibition
In short: as §2

[34] = test system: Downy Brome; test: pre-emergence herbicide test; conditions: Bromus tectorum, pre-emergence, 0.25 lb/A; read-out: % plant inhibition
In short: as §2

Structure (SMILES)	inhibition at 280.212 g/ha [1] [%]	inhibition at 280.212 g/ha [2] [%]	inhibition at 280.212 g/ha [3] [%]	inhibition at 280.212 g/ha [4] [%]	inhibition at 280.212 g/ha [5] [%]	inhibition at 280.212 g/ha [6] [%]	inhibition at 280.212 g/ha [7] [%]	inhibition at 280.212 g/ha [8] [%]	inhibition at 280.212 g/ha [9] [%]	inhibition at 280.212 g/ha [10] [%]	inhibition at 280.212 g/ha [11] [%]	inhibition at 280.212 g/ha [12] [%]	inhibition at 280.212 g/ha [13] [%]	inhibition at 280.212 g/ha [14] [%]	inhibition at 280.212 g/ha [15] [%]	inhibition at 280.212 g/ha [16] [%]	inhibition at 280.212 g/ha [17] [%]	inhibition at 280.212 g/ha [18] [%]	inhibition at 280.212 g/ha [19] [%]	inhibition at 280.212 g/ha [20] [%]	other results
Cc1c(-c2cc(CS)c(Cl)cc2F)nn(C)c1C(F)(F)F [Compound 30]	60	70	60	65	65	20	15	65	75	40	25	85	30	98	60	20	25	5	95	70	inhibition at 280.212 g/ha [21]: 98%; inhibition at 280.212 g/ha [22]: 20%; inhibition at 280.212 g/ha [23]: 25%; inhibition at 280.212 g/ha [24]: 0%; inhibition at 280.212 g/ha [25]: 20%; inhibition at 280.212 g/ha [26]: 35%; inhibition at 280.212 g/ha [27]: 40%; inhibition at 280.212 g/ha [28]: 0%; inhibition at 280.212 g/ha [29]: 90%; inhibition at 280.212 g/ha [30]: 20%; inhibition at 280.212 g/ha [31]: 50%; inhibition at 280.212 g/ha [32]: 25%; inhibition at 280.212 g/ha [33]: 15%; inhibition at 280.212 g/ha [34]: 5%
COCCOC(=O)c1cc(-c2nn(C)c(C(F)(F)F)c2C)c(F)cc1Cl [Compound 56]	98	95	50	98	90	100	16	80	90	98	80	100	60	100	99	35	85	5	50	100	inhibition at 280.212 g/ha [21]: 100%; inhibition at 280.212 g/ha [22]: 0%; inhibition at 280.212 g/ha [23]: 90%; inhibition at 280.212 g/ha [24]: 5%; inhibition at 280.212 g/ha [25]: 80%; inhibition at 280.212 g/ha [26]: 95%; inhibition at 280.212 g/ha [27]: 90%; inhibition at 280.212 g/ha [28]: 55%; inhibition at 280.212 g/ha [29]: 100%; inhibition at 280.212 g/ha [30]: 75%; inhibition at 280.212 g/ha [31]: 100%; inhibition at 280.212 g/ha [32]: 20%; inhibition at 280.212 g/ha [33]: 0%; inhibition at 280.212 g/ha [34]: 100%
C#CCOC(=O)c1cc(-c2nn(C)c(C(F)(F)F)c2C)c(F)cc1Cl [Compound 42]	40	45	65	40	10	0	15	70	95	100	20	98	20	95	85	25	30	5	0	35	inhibition at 280.212 g/ha [21]: 95%; inhibition at 280.212 g/ha [22]: 0%; inhibition at 280.212 g/ha [23]: 0%; inhibition at 280.212 g/ha [24]: 0%; inhibition at 280.212 g/ha [25]: 60%; inhibition at 280.212 g/ha [26]: 40%; inhibition at 280.212 g/ha [27]: 80%; inhibition at 280.212 g/ha [28]: 5%; inhibition at 280.212 g/ha [29]: 65%; inhibition at 280.212 g/ha [30]: 15%; inhibition at 280.212 g/ha [31]: 30%; inhibition at 280.212 g/ha [32]: 65%; inhibition at 280.212 g/ha [33]: 5%; inhibition at 280.212 g/ha [34]: 10%
Cc1c(-c2cc(CS(C)(=O)=O)c(Cl)cc2F)nn(C)c1C(F)(F)F [Compound 28]	20	20	10	50	20	25	8	65	25	60	15	60	10	85	40	40	20	5	50	15	inhibition at 280.212 g/ha [21]: 90%; inhibition at 280.212 g/ha [22]: 0%; inhibition at 280.212 g/ha [23]: 30%; inhibition at 280.212 g/ha [24]: 0%; inhibition at 280.212 g/ha [25]: 0%; inhibition at 280.212 g/ha [26]: 25%; inhibition at 280.212 g/ha [27]: 40%; inhibition at 280.212 g/ha [28]: 0%; inhibition at 280.212 g/ha [29]: 45%; inhibition at 280.212 g/ha [30]: 30%; inhibition at 280.212 g/ha [31]: 70%; inhibition at 280.212 g/ha [32]: 10%; inhibition at 280.212 g/ha [33]: 3%; inhibition at 280.212 g/ha [34]: 0%
Cc1c(-c2cc(C(=O)OCc3ccccc3)c(Cl)cc2F)nn(C)c1C(F)(F)F [Compound 41]	40	70	65	90	15	5	15	75	98	100	20	99	20	100	95	35	30	5	50	50	inhibition at 280.212 g/ha [21]: 100%; inhibition at 280.212 g/ha [22]: 0%; inhibition at 280.212 g/ha [23]: 40%; inhibition at 280.212 g/ha [24]: 3%; inhibition at 280.212 g/ha [25]: 0%; inhibition at 280.212 g/ha [26]: 55%; inhibition at 280.212 g/ha [27]: 60%; inhibition at 280.212 g/ha [28]: 10%; inhibition at 280.212 g/ha [29]: 90%; inhibition at 280.212 g/ha [30]: 15%; inhibition at 280.212 g/ha [31]: 100%; inhibition at 280.212 g/ha [32]: 25%; inhibition at 280.212 g/ha [33]: 0%; inhibition at 280.212 g/ha [34]: 30%
